Experiment [1] has as its system C. albicans blastoconidia. The conditions noted are these: for C. albicans: % killing at 50 μM dose (scoring): highest response seen used in the scoring; for anti-fungal (fungicidal) activity, in words: C. albicans blastoconidia; for C. albicans: LD50 (μM) for % killing: blastoconidia, 1 h at 37° C., pH 7.4. An excerpt:
C. albicans is a dimorphic yeast. It can exist in a yeast or blastoconidial form, which upon germination develops into the hyphal or germinated form. While the germinated form is considered to be more invasive, most of the C. albicans isolates harvested from the oral cavities of healthy individuals appear to be in the blastoconidial form. (Arendorf, T. M. et al. (1980), Arch. Oral Biol. 25:1-10; Gow, N.A.R. et al. (1987), Criti. Rev. Microbiol. 15:73-78; Odds, F. C. (1988), Candida and Candidosis, 2nd ed., Bailliere Tindall, London, England). Anti-fungal activity of synthetic histatin 5, histatin-based peptide 113, peptides based on portions of the amino acid sequences of histatin-based peptide 113 and peptides derived from histatin-based peptide 113 with specified amino acid substitutions was measured in assays designed to test the effectiveness of the peptides against the blastoconidia form of Candida (Table 1). These assays, which measure killing of blastoconidia of C. albicans, are described in Xu et al., which is herein incorporated by reference. (Xu, T. et al. (1991), Infect. Immun. 59(8):2549-2554).
A well-described strain of C. albicans was used in the bioassay. This strain, ATCC 44505, was originally isolated from the human oral cavity. Cultures were stored at 4° C. on Sabouraud dextrose agar plates (Difco Laboratories, Detroit, Mich.) until use. Stationary phase growth cells were obtained following growth at 30° C. for 18 h on Sabouraud dextrose agar plates. Colonies were harvested and suspended in 10 mM potassium phosphate buffer (PPB), pH 7.4.
To initiate log phase growth, an aliquot of stock C. albicans was suspended in Sabouraud dextrose broth (Difco) and incubated at 30° C. in a shaking water bath. The growth phase was determined by taking aliquots of the culture at one hour intervals to monitor the optical density (O.D.) at 560 nm. […] Log phase cells were harvested and utilized in the blastoconidia killing assay in a manner identical to that described for stationary phase cells. A final concentration of 10^5 cells/ml (either stationary or log phase fungus) was used in all assays.
The standard suspension buffer utilized in the blastospore killing assay was 0.01M PPB, pH 7.4. An alternate suspension buffer, N-2-hydroxyethylpiperazine-N'-2-ethanesulfonic acids (HEPES; Sigma Chemical Co., St. Louis, Mo.), pH 7.4, can also be utilized.
a. For the killing of blastoconidia assay, 50 μl aliquots of cells (2×10^5 cells/ml) diluted in suspension buffer were allowed to attach to a polystyrene 96-well micro-titer plate (COSTAR, Cambridge, Mass.) for 15 min at room temperature, and then incubated with an equal volume of a histatin or histatin peptide in suspension buffer for 1 h at 37° C. Controls were carried out in the absence of the histatin or histatin peptide. After incubation, wells were washed three times by centrifugation at 1,000 xg for 5 min and covered with aliquots of molten Sabouraud dextrose broth (Difco) containing 2% agarose (Sigma) at 45° C. The plate was then incubated at 30° C. for 8 h. Under such conditions, live cells will divide and begin to form colonies, while dead cells will remain as single cells. To determine the percentage of blastoconidia killed, a total of 100 single cells and/or colonies were counted under a Nikon inverted microscope at 400× magnification and the extent of killing was calculated using the formula: [1-(number of colonies in treated sample)/(number of colonies in control)]×100%.
Data were obtained by calculating the mean and standard deviation from triplicate assays.

Experiment [2] has as its target T1, Clostripain (Hathewaya histolytica, UniProt P09870).
T1 construct: purchased Sigma Chemical Corp., St. Louis, Mo
As to the kind of experiment: clostripain assay (BAPNA hydrolysis). It counts as biochemical, Clostridium histolyticum. On the procedure: (§1) Clostripain from Clostridium histolyticum (Sigma Chemical Corp., St. Louis, Mo.) was dissolved in deionized water to a concentration of 1 mg/mL (300 units/mg) and activated with the addition of 10 mmol/L DTT. To measure its hydrolytic activity, clostripain (6 units) was added to […] Hepes buffer, pH 7.5, containing 80 gmol/L BAPNA (benzoyl-arginine-p-nitroanilide), together with 5.6 μmol/L of histatin peptide inhibitor. As controls, assays were performed in the absence of any histatin peptide inhibitor. The activity was monitored continuously at 405 nm using a Molecular Devices VMax microtitre plate reader. The activities were determined from the maximum rates of substrate hydrolysis. Assays were done in duplicate, and the means normalized to the controls.

Experiment [3] concerns the target T2, Clostripain (Hathewaya histolytica, UniProt P09870).
T2 construct: purchased Sigma Chemical Corp., St. Louis, Mo
T2 sequence (P09870 whole entry, looked up): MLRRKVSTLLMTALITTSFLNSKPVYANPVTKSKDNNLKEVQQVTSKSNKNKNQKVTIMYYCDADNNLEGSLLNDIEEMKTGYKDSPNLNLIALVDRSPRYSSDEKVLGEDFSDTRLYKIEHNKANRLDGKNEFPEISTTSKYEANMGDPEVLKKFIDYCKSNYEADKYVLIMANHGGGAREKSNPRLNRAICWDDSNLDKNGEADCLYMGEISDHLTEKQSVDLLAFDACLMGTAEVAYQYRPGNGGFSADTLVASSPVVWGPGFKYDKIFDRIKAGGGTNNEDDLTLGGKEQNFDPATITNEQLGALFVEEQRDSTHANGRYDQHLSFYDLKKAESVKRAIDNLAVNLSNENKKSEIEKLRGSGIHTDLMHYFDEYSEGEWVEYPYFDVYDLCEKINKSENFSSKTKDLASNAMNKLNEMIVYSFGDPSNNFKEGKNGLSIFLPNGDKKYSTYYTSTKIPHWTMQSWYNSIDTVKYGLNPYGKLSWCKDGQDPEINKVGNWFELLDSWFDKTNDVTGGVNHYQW
As to the kind of experiment: clostripain assay (BAPNA hydrolysis). It counts as biochemical, Clostridium histolyticum. On the procedure: as §1
The source holds these as a separate data set.

[4] abbreviates: read-out: Clostripain: IC50 (μM) for inhibition of Clostripain.

Where two headings read alike, the source gives them in different places. Where no end group is shown, it is not given here.

These results are taken from patent US5912230A, “Anti-fungal and anti-bacterial histatin-based peptides” (priority 1998, dated 1999).

What is called IC50 is the concentration at which inhibition is half-maximal.

For AKRHHGYKR [peptide 120], in experiment [1], the “C. albicans: % killing at 50 μM dose (scoring)” value (“C. albicans: % killing” for short) is listed as “++ (++20-50%)” and the “anti-fungal (fungicidal) activity, in words” value is “C. albicans blastoconidia killing”. For the same substance, in experiment [2], the IC50 was above 50 µM and the “clostripain inhibition, in words” value was “clostripain inhibition effects”.

With AKRHHGYKRK [peptide 119], in experiment [1], the “C. albicans: % killing” value was “++ (++20-50%)” and the “anti-fungal (fungicidal) activity, in words” value is “C. albicans blastoconidia killing”. In experiment [2], the IC50 is above 50 µM and the “clostripain inhibition, in words” value is “clostripain inhibition effects”.

As for AKRHHGYKRKF [peptide 118], in experiment [1], the “C. albicans: % killing” value is “++++ (++++80-100%)” and the “anti-fungal (fungicidal) activity, in words” value was “C. albicans blastoconidia killing”. Further, in experiment [2], the IC50 came out at 45 µM and the “clostripain inhibition, in words” value is listed as “clostripain inhibition effects”.

In the case of AKRHHGYKRKFH [peptide 113], the “C. albicans: LD50 (μM) for % killing” value in experiment [1] is 5.8 µM. Besides, the “anti-fungal activity at pH 4.0, in words” value in experiment [1] (pH 4.0) is “essentially devoid of anti-fungal activity”. Also, in experiment [2], the “clostripain inhibition, in words” value is “clostripain inhibition effects”. Also, the IC50 in experiment [2] (setting [4]) was 25 µM.

As to “His 11: histatin 11 (SEQ ID NO: 11), subpeptide of peptide 113 (KRHHGYKR)”, the “C. albicans: % killing” value in experiment [1] was “+ (+<20%)”. Also, in experiment [3], the “clostripain inhibition, in words” value was “clostripain inhibition effects”.

Regarding KRHHGYKRKF [peptide 129], the “C. albicans: LD50 (μM) for % killing” value in experiment [1] was found to be 27 µM. Besides, the “clostripain inhibition, in words” value in experiment [2] is “clostripain inhibition effects”. Besides, the 50% inhibitory concentration (IC50) in experiment [2] (setting [4]) turned out to be 19 µM.

As to “peptide 117: subpeptide of peptide 113 (SEQ ID NO: 19) (KRHHGYKRKFH)”, in experiment [1], the “C. albicans: % killing” value is reported as “++++ (++++80-100%)” and the “anti-fungal (fungicidal) activity, in words” value was “C. albicans blastoconidia killing”. Further, the “clostripain inhibition, in words” value in experiment [3] is listed as “clostripain inhibition effects”.
